Experimental findings from patent US6747033B2, “Fungicidal triazolopyrimid-7-ylideneamines” (BASF Aktiengesellschaft, priority 2000, dated 2004) are described below.

In one experiment the test system is Venturia inaequalis. Kind of experiment: In vivo fungicidal activity, Apple Scab (AS). Further: ranges in brackets are in %.
A further experiment relates to Plasmopara viticola. Kind of experiment: In vivo fungicidal activity, Grape downy mildew (GDM). Further: ranges in brackets are in %.
The test system of the next experiment is Botrytis cinera. Put plainly: In vivo fungicidal activity, Pepper Botrytis (PB). Further: ranges in brackets are in %.
In experiment [1] the test system is Pyricularia grisea f. sp. oryzae. The format is in vivo. To be noted: Rice Blast.
For another experiment, the system named is Alternara solani. Put plainly: In vivo fungicidal activity, Tomato early blight (TEB). Further: ranges in brackets are in %.
Another experiment concerns Blumeria graminis. Put plainly: In vivo fungicidal activity, Wheat powdery mildew (WPM). Further: ranges in brackets are in %.
For experiment [2], the system named is Pseudocercosporella herpotrichoides. Kind of experiment: In vitro fungicidal activity, Cereal eye spot (PSDCHE). Set-up: key: 0: None; 3: slight; 5: moderate; 7: severe; 9: complete. As to conditions: 3-7 days of incubation. It is filed as cell-based. Here is the method: (§1) Test compounds are dissolved in acetone to give concentrations of 25, 10 and 1 ppm and are added to individual cell Walls (24-cell-well plates, Corning), which were previously filled with a suspension of ground plates, Corning), which were previously filled with a suspension of ground fungal mycelium in a chemically defined growth medium. After 3-7 days of incubation, inhibition of […] growth is recorded using the following scale: The data obtained are shown in Table II. [table]

A further experiment has as its system Pythium ultimum. Put plainly: In vitro fungicidal activity, Fruit rot (PYTHUL). The format is cell-based. Further details: key: 0: None; 3: slight; 5: moderate; 7: severe; 9: complete. To be noted: 3-7 days of incubation. Here is the method: as §1
Another experiment relates to Rhizoctonia solani. Put plainly: In vitro fungicidal activity, Rice sheath blight (RHIZSO). It is filed as cell-based. Set-up: key: 0: None; 3: slight; 5: moderate; 7: severe; 9: complete. To be noted: 3-7 days of incubation. Here is the method:
as §1

SMILES strings stand for the structures. Where two headings read alike, the source gives them in different places.

Regarding `Cn1c(Cl)c(-c2c(F)cc(F)cc2F)c(=NCC(F)(F)F)n2ncnc12` [Example 8], the “AS disease control rating” value with Venturia inaequalis (12.5 ppm spray) is given as 0 (0); with Venturia inaequalis (50 ppm spray), 0 (0); in the experiment with Venturia inaequalis (200 ppm spray), 5 (60-74). The “GDM disease control rating” value in the experiment on Plasmopara viticola (12.5 ppm spray) is 5 (60-74); in the experiment on Plasmopara viticola (50 ppm spray), 4 (45-59); in the experiment with Plasmopara viticola (200 ppm spray), 5 (60-74). Further, the “PB disease control rating” value with Botrytis cinera (12.5 ppm spray), in the experiment on Botrytis cinera (50 ppm spray) and in the experiment with Botrytis cinera (200 ppm spray) was 0 (0) throughout. The entries for the “RB disease control rating” value in experiment [1] (12.5 ppm spray), in [1] (50 ppm spray) and in experiment [1] (200 ppm spray) were 0 (0), 0 (0) and 4 (45-59), respectively. Moreover, the “TEB disease control rating” value in the experiment with Alternara solani (12.5 ppm spray) was 2 (15-29); with Alternara solani (50 ppm spray), 0 (0); in the experiment on Alternara solani (200 ppm spray) it was 0 (0). In addition, the results for the “WPM disease control rating” value in the experiment with Blumeria graminis (12.5 ppm spray), in the experiment on Blumeria graminis (50 ppm spray) and in the experiment with Blumeria graminis (200 ppm spray) were 2 (15-29), 4 (45-59) and 7 (90-95), respectively. The “PSDCH inhibition of mycelial growth rating” value (from here on “PSDCH inhibition”) in [2] (1 ppm), in [2] (10 ppm) and in experiment [2] (25 ppm) was 0 throughout. The “PYTHU inhibition of mycelial growth rating” value (from here on “PYTHU inhibition”) in the experiment on Pythium ultimum (1 ppm), with Pythium ultimum (10 ppm) and in the experiment on Pythium ultimum (25 ppm) was 0 each time. For the same compound, the “RHIZSO inhibition of mycelial growth rating” value (from here on “RHIZSO inhibition”) with Rhizoctonia solani (1 ppm), in the experiment on Rhizoctonia solani (10 ppm) and with Rhizoctonia solani (25 ppm) was 7 in each case.

In the case of `COc1cc(F)c(-c2c(Cl)nc3n(C)cnn3c2=NC(C)C(F)(F)F)c(F)c1` (centres unmarked) [Example 13], the “AS disease control rating” value in the experiment with Venturia inaequalis (12.5 ppm spray), with Venturia inaequalis (50 ppm spray) and in the experiment on Venturia inaequalis (200 ppm spray) was 0 (0) throughout. For the same compound, the “GDM disease control rating” value in the experiment with Plasmopara viticola (12.5 ppm spray), in the experiment on Plasmopara viticola (50 ppm spray) and in the experiment on Plasmopara viticola (200 ppm spray) was 0 (0) in each case. The “PB disease control rating” value in the experiment with Botrytis cinera (12.5 ppm spray), in the experiment on Botrytis cinera (50 ppm spray) and in the experiment with Botrytis cinera (200 ppm spray) was 0 (0) in each case. Besides, the “RB disease control rating” value in experiment [1] (12.5 ppm spray), in experiment [1] (50 ppm spray) and in [1] (200 ppm spray) was 0 (0) in each case. Moreover, the “TEB disease control rating” value in the experiment on Alternara solani (12.5 ppm spray), with Alternara solani (50 ppm spray) and with Alternara solani (200 ppm spray) was 0 (0) in each case. Further, the “WPM disease control rating” value in the experiment on Blumeria graminis (12.5 ppm spray) is 0 (0); in the experiment on Blumeria graminis (50 ppm spray) it was 3 (30-44); in the experiment with Blumeria graminis (200 ppm spray), 5 (60-74).

As for `CC(N=c1c(-c2ccccc2Cl)c(Cl)n(C)c2ncnn12)C(F)(F)F` (centres unmarked) [Example 6], the “AS disease control rating” value is 0 (0) in the experiment on Venturia inaequalis (12.5 ppm spray), 0 (0) in the experiment on Venturia inaequalis (50 ppm spray) and 5 (60-74) in the experiment with Venturia inaequalis (200 ppm spray). In addition, the “GDM disease control rating” value in the experiment on Plasmopara viticola (12.5 ppm spray) is on record as 0 (0); in the experiment on Plasmopara viticola (50 ppm spray), 0 (0); in the experiment on Plasmopara viticola (200 ppm spray) it was 7 (90-95). Moreover, the “PB disease control rating” value with Botrytis cinera (12.5 ppm spray), in the experiment with Botrytis cinera (50 ppm spray) and in the experiment on Botrytis cinera (200 ppm spray) was 0 (0) in each case. Further, the “RB disease control rating” value in experiment [1] (12.5 ppm spray) is reported as 0 (0); in [1] (50 ppm spray), 0 (0); in [1] (200 ppm spray), 5 (60-74). Further, the “TEB disease control rating” value with Alternara solani (12.5 ppm spray), with Alternara solani (50 ppm spray) and in the experiment with Alternara solani (200 ppm spray) was 0 (0) in each case. The “WPM disease control rating” value with Blumeria graminis (12.5 ppm spray) is on record as 0 (0); in the experiment on Blumeria graminis (50 ppm spray), 0 (0); in the experiment with Blumeria graminis (200 ppm spray), 5 (60-74). Moreover, the “PSDCH inhibition” value in experiment [2] (1 ppm) is 0; in experiment [2] (10 ppm) it was 1; in experiment [2] (25 ppm) it was 0. Further, the “PYTHU inhibition” value with Pythium ultimum (1 ppm), with Pythium ultimum (10 ppm) and in the experiment on Pythium ultimum (25 ppm) was 0 throughout. The “RHIZSO inhibition” value in the experiment on Rhizoctonia solani (1 ppm), in the experiment on Rhizoctonia solani (10 ppm) and with Rhizoctonia solani (25 ppm) was 0 each time.

With `CC(N=c1c(-c2ccc(F)cc2F)c(Cl)n(C)c2ncnn12)C(F)(F)F` (centres unmarked) [Example 7], the “AS disease control rating” value with Venturia inaequalis (12.5 ppm spray) was 0 (0); with Venturia inaequalis (50 ppm spray), 0 (0); in the experiment on Venturia inaequalis (200 ppm spray) it was 6 (75-89). Further, the results for the “GDM disease control rating” value in the experiment on Plasmopara viticola (12.5 ppm spray), in the experiment with Plasmopara viticola (50 ppm spray) and in the experiment with Plasmopara viticola (200 ppm spray) were 0 (0), 0 (0) and 8 (96-99), respectively. Further, the “PB disease control rating” value with Botrytis cinera (12.5 ppm spray) is recorded as 2 (15-29); with Botrytis cinera (50 ppm spray) it was 0 (0); in the experiment on Botrytis cinera (200 ppm spray) it was 0 (0). Moreover, the “RB disease control rating” value in experiment [1] (12.5 ppm spray) was 0 (0); in [1] (50 ppm spray), 0 (0); in [1] (200 ppm spray), 4 (45-59). Also, the “TEB disease control rating” value with Alternara solani (12.5 ppm spray), in the experiment with Alternara solani (50 ppm spray) and in the experiment on Alternara solani (200 ppm spray) was 0 (0) in each case. Also, the “WPM disease control rating” value is 0 (0) with Blumeria graminis (12.5 ppm spray), 4 (45-59) with Blumeria graminis (50 ppm spray) and 6 (75-89) with Blumeria graminis (200 ppm spray). In addition, the “PSDCH inhibition” value in [2] (1 ppm) is given as 0; in experiment [2] (10 ppm), 1; in experiment [2] (25 ppm) it was 0. In addition, the “PYTHU inhibition” value in the experiment with Pythium ultimum (1 ppm), in the experiment with Pythium ultimum (10 ppm) and in the experiment with Pythium ultimum (25 ppm) was 0 each time. Moreover, the “RHIZSO inhibition” value with Rhizoctonia solani (1 ppm), in the experiment with Rhizoctonia solani (10 ppm) and with Rhizoctonia solani (25 ppm) was 5 throughout.

Take `CC(N=c1c(-c2c(F)cccc2F)c(Cl)nc2n(C)cnn12)C(F)(F)F` (centres unmarked) [Example 14]: the “AS disease control rating” value in the experiment with Venturia inaequalis (12.5 ppm spray) is reported as 0 (0); with Venturia inaequalis (50 ppm spray) it was 0 (0); in the experiment on Venturia inaequalis (200 ppm spray) it was 6 (75-89). Besides, the “GDM disease control rating” value with Plasmopara viticola (12.5 ppm spray) is recorded as 0 (0); with Plasmopara viticola (50 ppm spray), 4 (45-59); in the experiment on Plasmopara viticola (200 ppm spray) it was 7 (90-95). Further, the “PB disease control rating” value in the experiment with Botrytis cinera (12.5 ppm spray), with Botrytis cinera (50 ppm spray) and in the experiment on Botrytis cinera (200 ppm spray) was 0 (0) in each case. For the same compound, the “RB disease control rating” value in experiment [1] (12.5 ppm spray), in experiment [1] (50 ppm spray) and in experiment [1] (200 ppm spray) was 0 (0) each time. For the same compound, the “TEB disease control rating” value with Alternara solani (12.5 ppm spray), in the experiment on Alternara solani (50 ppm spray) and in the experiment with Alternara solani (200 ppm spray) was 0 (0) throughout. Also, the “WPM disease control rating” value in the experiment with Blumeria graminis (12.5 ppm spray), in the experiment with Blumeria graminis (50 ppm spray) and with Blumeria graminis (200 ppm spray) was 0 (0) throughout.

As for `CC(N=c1c(-c2ccc(F)cc2F)c(Cl)nc2n(C)cnn12)C(F)(F)F` (centres unmarked) [Example 16], the “AS disease control rating” value was 0 (0) in the experiment on Venturia inaequalis (12.5 ppm spray), 5 (60-74) with Venturia inaequalis (50 ppm spray) and 6 (75-89) with Venturia inaequalis (200 ppm spray). In addition, the figures for the “GDM disease control rating” value in the experiment with Plasmopara viticola (50 ppm spray) and in the experiment with Plasmopara viticola (200 ppm spray) were 5 (60-74) and 7 (90-95), respectively. The “PB disease control rating” value in the experiment with Botrytis cinera (12.5 ppm spray), with Botrytis cinera (50 ppm spray) and in the experiment on Botrytis cinera (200 ppm spray) was 0 (0) throughout. In addition, the “RB disease control rating” value in experiment [1] (12.5 ppm spray), in [1] (50 ppm spray) and in [1] (200 ppm spray) was 0 (0) in each case. The “TEB disease control rating” value in the experiment on Alternara solani (12.5 ppm spray), in the experiment with Alternara solani (50 ppm spray) and with Alternara solani (200 ppm spray) was 0 (0) each time. Besides, the “WPM disease control rating” value in the experiment with Blumeria graminis (12.5 ppm spray), in the experiment on Blumeria graminis (50 ppm spray) and in the experiment on Blumeria graminis (200 ppm spray) was 0 (0) each time. Moreover, the “PSDCH inhibition” value in experiment [2] (1 ppm), in experiment [2] (10 ppm) and in [2] (25 ppm) was 0 throughout. Further, the entries for the “PYTHU inhibition” value in the experiment with Pythium ultimum (1 ppm), with Pythium ultimum (10 ppm) and with Pythium ultimum (25 ppm) were 0, 5 and 7, respectively. Further, the “RHIZSO inhibition” value with Rhizoctonia solani (1 ppm) is 5; in the experiment on Rhizoctonia solani (10 ppm), 7; in the experiment with Rhizoctonia solani (25 ppm), 7.

Take `CC(N=c1c(-c2c(F)cccc2F)c(Cl)n(C)c2ncnn12)C(F)(F)F` (centres unmarked) [Example 5]: the “AS disease control rating” value in the experiment with Venturia inaequalis (12.5 ppm spray), in the experiment with Venturia inaequalis (50 ppm spray) and in the experiment with Venturia inaequalis (200 ppm spray) was 0 (0) throughout. In addition, the entries for the “GDM disease control rating” value in the experiment with Plasmopara viticola (12.5 ppm spray), in the experiment with Plasmopara viticola (50 ppm spray) and in the experiment on Plasmopara viticola (200 ppm spray) were 6 (75-89), 6 (75-89) and 5 (60-74), respectively. Besides, the “PB disease control rating” value with Botrytis cinera (12.5 ppm spray) was 0 (0); in the experiment with Botrytis cinera (50 ppm spray) it was 0 (0); in the experiment with Botrytis cinera (200 ppm spray), 1 (1-14). Besides, the “RB disease control rating” value in experiment [1] (12.5 ppm spray), in experiment [1] (50 ppm spray) and in experiment [1] (200 ppm spray) was 0 (0) each time. For the same compound, the “TEB disease control rating” value in the experiment with Alternara solani (12.5 ppm spray), with Alternara solani (50 ppm spray) and with Alternara solani (200 ppm spray) was 0 (0) each time. Further, the “WPM disease control rating” value in the experiment on Blumeria graminis (12.5 ppm spray) is on record as 0 (0); in the experiment with Blumeria graminis (50 ppm spray) it was 3 (30-44); in the experiment on Blumeria graminis (200 ppm spray) it was 6 (75-89).
